According to patent US12637424B2, “Pharmaceutical salt of an arylpyrrole derivative” (SENTINEL ONCOLOGY LIMITED, priority 2020, dated 2026):

Assays:
Experiment in all cases: DiscoverX KinomeScreen competition binding assay (kinase selectivity panel)
[1] = target: T1, panel of ninety-seven kinases (Homo sapiens, UniProt P49137); settings: MAPKAPK2; screened at 3000 nM
T1 construct: purchased DiscoverX; host or cells: E. coli (BL21-derived, T7 phage display) or HEK-293
Experimental: (§1) This has been investigated by testing atropisomer A-2 for off-target activity against a panel of ninety-seven kinases distributed across the kinome at a concentration of 3 μM using the DiscoverX KinomeScreen assay. The DiscoverX KinomeScreen assay is a site-directed competition binding assay which measures the binding affinity of a compound to a kinase, by use of a solid supported control compound which can bind or capture the kinases in solution. In the absence of a kinase-inhibitor test compound, all of the kinase will bind to the solid support. If a kinase-inhibitor test compound is added to the assay mix, the amount of kinase binding to the solid support will be reduced, the extent of reduction being dependent on the potency of the test compound as a kinase inhibitor. […] For most assays, kinase-tagged T7 phage strains were grown in parallel in 24-well blocks in an E. coli host derived from the BL21 strain. E. coli were grown to log-phase and infected with T7 phage from a frozen stock (multiplicity of infection=0.4) and incubated with shaking at 32° C. until lysis (90-150 minutes). The lysates were centrifuged (6,000×g) and filtered (0.2 μm) to remove cell debris. The remaining kinases were produced in HEK-293 cells and subsequently tagged with DNA for qPCR detection. Streptavidin-coated magnetic beads were treated with biotinylated small molecule ligands for 30 minutes at room temperature to generate affinity resins for kinase assays. The liganded beads were blocked with excess biotin and washed with blocking buffer (SeaBlock (Pierce), 1% BSA, 0.05% Tween 20, 1 mM DTT) to remove unbound ligand and to reduce non-specific phage binding. […] Test compounds were prepared as 40× stocks in 100% DMSO and directly diluted into the assay. All reactions were performed in polypropylene 384-well plates in a final volume of 0.02 ml. […] The beads were then re-suspended in elution buffer (1×PBS, 0.05% Tween 20, 0.5 μM non-biotinylated affinity ligand) and incubated at room temperature with shaking for 30 minutes. The kinase concentration in the eluates was measured by qPCR. Compounds that bind the kinase active site and directly (sterically) or indirectly (allosterically) prevent kinase binding to the immobilized ligand, will reduce the amount of kinase captured on the solid support. […] The strength of binding of the test molecule to the kinase can be expressed as the percent control (% Ctrl) The compound(s) were screened at 3000 nM concentration, and results for primary screen binding interactions are reported as ‘% Ctrl’, where lower numbers indicate stronger hits in the matrix on the following page(s). [formula] • negative control=DMSO (100% Ctrl) • positive control=control compound (0% Ctrl)

[2] = target: T2, panel of ninety-seven kinases (Homo sapiens, UniProt Q02763); settings: TEK; screened at 3000 nM
T2 construct: purchased DiscoverX; host or cells: E. coli (BL21-derived, T7 phage display) or HEK-293
Experimental: as §1

[3] = target: T3, panel of ninety-seven kinases (Homo sapiens, UniProt Q8IYT8); settings: ULK2; screened at 3000 nM
T3 construct: purchased DiscoverX; host or cells: E. coli (BL21-derived, T7 phage display) or HEK-293
Experimental: as §1

[4] = target: T4, panel of ninety-seven kinases (Homo sapiens, UniProt Q05397); settings: PTK2; screened at 3000 nM
T4 construct: purchased DiscoverX; host or cells: E. coli (BL21-derived, T7 phage display) or HEK-293
Experimental: as §1

[5] = target: T5, panel of ninety-seven kinases (Homo sapiens, UniProt P36888); settings: FLT3; screened at 3000 nM
T5 construct: purchased DiscoverX; host or cells: E. coli (BL21-derived, T7 phage display) or HEK-293
Experimental: as §1

[6] = target: T6, panel of ninety-seven kinases (Homo sapiens, UniProt P04626); settings: ERBB2; screened at 3000 nM
T6 construct: purchased DiscoverX; host or cells: E. coli (BL21-derived, T7 phage display) or HEK-293
Experimental: as §1

[7] = target: T7, panel of ninety-seven kinases (Homo sapiens, UniProt Q00526); settings: CDK3; screened at 3000 nM
T7 construct: purchased DiscoverX; host or cells: E. coli (BL21-derived, T7 phage display) or HEK-293
Experimental: as §1

[8] = target: T8, panel of ninety-seven kinases (Homo sapiens, UniProt P21802); settings: FGFR2; screened at 3000 nM
T8 construct: purchased DiscoverX; host or cells: E. coli (BL21-derived, T7 phage display) or HEK-293
Experimental: as §1

[9] = target: T9, panel of ninety-seven kinases (Homo sapiens, UniProt P12931); settings: SRC; screened at 3000 nM
T9 construct: purchased DiscoverX; host or cells: E. coli (BL21-derived, T7 phage display) or HEK-293
Experimental: as §1

[10] = target: T10, panel of ninety-seven kinases (Homo sapiens, UniProt Q9P1W9); settings: PIM2; screened at 3000 nM
T10 construct: purchased DiscoverX; host or cells: E. coli (BL21-derived, T7 phage display) or HEK-293
Experimental: as §1

[11] = target: T11, panel of ninety-seven kinases (Homo sapiens, UniProt O14965); settings: AURKA; screened at 3000 nM
T11 construct: purchased DiscoverX; host or cells: E. coli (BL21-derived, T7 phage display) or HEK-293
Experimental: as §1

[12] = target: T12, panel of ninety-seven kinases (Homo sapiens, UniProt P36507); settings: MAP2K2; screened at 3000 nM
T12 construct: purchased DiscoverX; host or cells: E. coli (BL21-derived, T7 phage display) or HEK-293
Experimental: as §1

[13] = target: T13, panel of ninety-seven kinases (Homo sapiens, UniProt Q86V86); settings: PIM3; screened at 3000 nM
T13 construct: purchased DiscoverX; host or cells: E. coli (BL21-derived, T7 phage display) or HEK-293
Experimental: as §1

[14] = target: T14, panel of ninety-seven kinases (Homo sapiens, UniProt Q9BVS4); settings: RIOK2; screened at 3000 nM
T14 construct: purchased DiscoverX; host or cells: E. coli (BL21-derived, T7 phage display) or HEK-293
Experimental: as §1

[15] = target: T15, panel of ninety-seven kinases (Homo sapiens, UniProt P22607); settings: FGFR3; screened at 3000 nM
T15 construct: purchased DiscoverX; host or cells: E. coli (BL21-derived, T7 phage display) or HEK-293
Experimental: as §1

[16] = target: T16, panel of ninety-seven kinases (Homo sapiens, UniProt P08069); settings: IGF1R; screened at 3000 nM
T16 construct: purchased DiscoverX; host or cells: E. coli (BL21-derived, T7 phage display) or HEK-293
Experimental: as §1

[17] = target: T17, panel of ninety-seven kinases (Homo sapiens, UniProt O75116); settings: ROCK2; screened at 3000 nM
T17 construct: purchased DiscoverX; host or cells: E. coli (BL21-derived, T7 phage display) or HEK-293
Experimental: as §1

[18] = target: T18, panel of ninety-seven kinases (Homo sapiens, UniProt P51812); settings: RPS6KA3; screened at 3000 nM
T18 construct: purchased DiscoverX; host or cells: E. coli (BL21-derived, T7 phage display) or HEK-293
Experimental: as §1

[19] = target: T19, panel of ninety-seven kinases (Homo sapiens, UniProt Q13873); settings: BMPR2; screened at 3000 nM
T19 construct: purchased DiscoverX; host or cells: E. coli (BL21-derived, T7 phage display) or HEK-293
Experimental: as §1

[20] = target: T20, panel of ninety-seven kinases (Homo sapiens, UniProt Q15759); settings: MAPK11; screened at 3000 nM
T20 construct: purchased DiscoverX; host or cells: E. coli (BL21-derived, T7 phage display) or HEK-293
Experimental: as §1

[21] = target: T21, panel of ninety-seven kinases (Homo sapiens, UniProt P50613); settings: CDK7; screened at 3000 nM
T21 construct: purchased DiscoverX; host or cells: E. coli (BL21-derived, T7 phage display) or HEK-293
Experimental: as §1

[22] = target: T22, panel of ninety-seven kinases (Homo sapiens, UniProt P16234); settings: PDGFRA; screened at 3000 nM
T22 construct: purchased DiscoverX; host or cells: E. coli (BL21-derived, T7 phage display) or HEK-293
Experimental: as §1

T8 sequence (P21802 22-821): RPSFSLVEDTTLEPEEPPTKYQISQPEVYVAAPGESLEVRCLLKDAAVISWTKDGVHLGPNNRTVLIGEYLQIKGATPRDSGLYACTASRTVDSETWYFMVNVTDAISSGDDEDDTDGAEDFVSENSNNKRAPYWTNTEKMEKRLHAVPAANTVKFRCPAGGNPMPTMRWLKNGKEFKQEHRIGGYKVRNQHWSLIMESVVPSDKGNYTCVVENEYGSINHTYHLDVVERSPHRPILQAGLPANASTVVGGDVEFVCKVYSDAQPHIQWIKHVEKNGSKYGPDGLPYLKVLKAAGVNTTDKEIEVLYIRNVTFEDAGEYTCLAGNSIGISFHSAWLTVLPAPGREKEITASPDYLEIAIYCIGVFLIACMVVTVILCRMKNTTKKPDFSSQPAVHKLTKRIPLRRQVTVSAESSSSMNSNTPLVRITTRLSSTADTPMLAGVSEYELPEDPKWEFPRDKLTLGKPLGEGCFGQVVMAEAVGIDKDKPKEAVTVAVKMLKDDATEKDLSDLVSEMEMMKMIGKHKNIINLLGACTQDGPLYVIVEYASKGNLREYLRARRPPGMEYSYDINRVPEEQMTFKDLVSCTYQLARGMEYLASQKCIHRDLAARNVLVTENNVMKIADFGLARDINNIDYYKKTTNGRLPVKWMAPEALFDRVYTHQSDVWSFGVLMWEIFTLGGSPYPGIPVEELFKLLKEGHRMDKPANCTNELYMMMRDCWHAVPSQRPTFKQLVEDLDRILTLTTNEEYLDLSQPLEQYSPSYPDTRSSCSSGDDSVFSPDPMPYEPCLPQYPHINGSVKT
T9 sequence (P12931 whole entry): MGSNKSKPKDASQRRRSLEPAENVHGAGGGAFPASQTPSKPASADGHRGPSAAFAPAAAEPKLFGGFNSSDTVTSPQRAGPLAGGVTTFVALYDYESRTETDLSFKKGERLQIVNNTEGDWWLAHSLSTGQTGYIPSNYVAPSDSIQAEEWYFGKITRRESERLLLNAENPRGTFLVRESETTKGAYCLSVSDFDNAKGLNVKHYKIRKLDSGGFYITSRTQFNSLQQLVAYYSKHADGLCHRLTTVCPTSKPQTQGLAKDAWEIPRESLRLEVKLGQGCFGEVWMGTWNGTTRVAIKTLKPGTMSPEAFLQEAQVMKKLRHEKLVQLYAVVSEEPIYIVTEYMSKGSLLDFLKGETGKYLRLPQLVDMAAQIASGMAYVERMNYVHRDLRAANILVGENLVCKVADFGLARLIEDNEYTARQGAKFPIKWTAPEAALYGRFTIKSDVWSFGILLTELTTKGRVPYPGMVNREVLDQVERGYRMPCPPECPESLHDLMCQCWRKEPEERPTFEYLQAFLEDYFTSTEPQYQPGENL
T19 sequence (Q13873 27-1038): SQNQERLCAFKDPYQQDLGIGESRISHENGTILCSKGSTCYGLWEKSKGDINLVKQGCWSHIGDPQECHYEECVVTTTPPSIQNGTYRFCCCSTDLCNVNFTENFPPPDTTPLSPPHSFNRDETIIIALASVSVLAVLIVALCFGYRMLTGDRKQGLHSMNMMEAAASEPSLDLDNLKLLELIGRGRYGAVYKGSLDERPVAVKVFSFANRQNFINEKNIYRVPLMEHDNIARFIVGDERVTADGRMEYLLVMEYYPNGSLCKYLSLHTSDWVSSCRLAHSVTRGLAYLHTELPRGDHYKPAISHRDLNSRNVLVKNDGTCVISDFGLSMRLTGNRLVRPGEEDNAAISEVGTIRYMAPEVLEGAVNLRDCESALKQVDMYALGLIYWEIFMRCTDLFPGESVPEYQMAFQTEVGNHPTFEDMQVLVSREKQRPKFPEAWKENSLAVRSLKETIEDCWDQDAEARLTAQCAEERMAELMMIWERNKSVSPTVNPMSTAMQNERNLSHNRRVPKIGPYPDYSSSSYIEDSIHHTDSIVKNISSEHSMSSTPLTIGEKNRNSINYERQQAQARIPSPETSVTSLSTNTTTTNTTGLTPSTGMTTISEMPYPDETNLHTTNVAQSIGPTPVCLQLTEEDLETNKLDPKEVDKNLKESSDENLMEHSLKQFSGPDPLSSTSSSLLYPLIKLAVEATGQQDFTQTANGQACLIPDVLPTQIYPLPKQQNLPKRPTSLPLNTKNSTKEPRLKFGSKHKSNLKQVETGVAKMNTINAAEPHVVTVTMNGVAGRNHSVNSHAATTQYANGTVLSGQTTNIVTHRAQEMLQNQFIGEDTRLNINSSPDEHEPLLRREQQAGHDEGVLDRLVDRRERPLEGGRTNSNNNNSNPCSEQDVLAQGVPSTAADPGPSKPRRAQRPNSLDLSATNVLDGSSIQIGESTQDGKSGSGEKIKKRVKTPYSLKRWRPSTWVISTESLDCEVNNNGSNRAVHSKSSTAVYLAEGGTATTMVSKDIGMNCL
T4 sequence (Q05397 whole entry): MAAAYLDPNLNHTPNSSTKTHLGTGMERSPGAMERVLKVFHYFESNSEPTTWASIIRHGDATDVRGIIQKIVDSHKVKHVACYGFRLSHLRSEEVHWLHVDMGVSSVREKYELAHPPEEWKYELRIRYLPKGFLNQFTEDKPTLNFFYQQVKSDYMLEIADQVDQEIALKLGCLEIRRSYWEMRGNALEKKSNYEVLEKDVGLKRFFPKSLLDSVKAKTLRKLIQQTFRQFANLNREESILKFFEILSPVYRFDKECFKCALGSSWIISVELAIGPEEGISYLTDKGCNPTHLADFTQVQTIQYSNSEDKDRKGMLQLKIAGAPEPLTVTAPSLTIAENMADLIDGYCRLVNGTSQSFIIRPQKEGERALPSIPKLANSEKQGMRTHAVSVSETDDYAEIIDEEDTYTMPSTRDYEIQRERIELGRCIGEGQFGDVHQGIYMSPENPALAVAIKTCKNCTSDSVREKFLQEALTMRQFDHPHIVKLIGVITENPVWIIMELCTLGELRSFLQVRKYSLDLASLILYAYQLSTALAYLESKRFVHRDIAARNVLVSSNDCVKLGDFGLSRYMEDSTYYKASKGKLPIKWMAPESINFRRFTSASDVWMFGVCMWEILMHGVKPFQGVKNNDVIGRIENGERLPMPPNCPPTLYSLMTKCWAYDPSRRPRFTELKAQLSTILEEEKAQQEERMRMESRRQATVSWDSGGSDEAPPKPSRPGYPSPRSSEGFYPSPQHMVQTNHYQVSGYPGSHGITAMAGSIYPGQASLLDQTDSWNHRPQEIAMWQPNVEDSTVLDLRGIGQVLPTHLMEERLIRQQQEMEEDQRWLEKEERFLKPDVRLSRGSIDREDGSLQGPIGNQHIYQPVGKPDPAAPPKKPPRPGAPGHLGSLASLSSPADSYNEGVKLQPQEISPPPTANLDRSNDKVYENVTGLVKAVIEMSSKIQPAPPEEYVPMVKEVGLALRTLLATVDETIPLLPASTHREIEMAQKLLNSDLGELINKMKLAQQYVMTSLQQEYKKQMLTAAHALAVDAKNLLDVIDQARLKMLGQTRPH
T2 sequence (Q02763 23-1124): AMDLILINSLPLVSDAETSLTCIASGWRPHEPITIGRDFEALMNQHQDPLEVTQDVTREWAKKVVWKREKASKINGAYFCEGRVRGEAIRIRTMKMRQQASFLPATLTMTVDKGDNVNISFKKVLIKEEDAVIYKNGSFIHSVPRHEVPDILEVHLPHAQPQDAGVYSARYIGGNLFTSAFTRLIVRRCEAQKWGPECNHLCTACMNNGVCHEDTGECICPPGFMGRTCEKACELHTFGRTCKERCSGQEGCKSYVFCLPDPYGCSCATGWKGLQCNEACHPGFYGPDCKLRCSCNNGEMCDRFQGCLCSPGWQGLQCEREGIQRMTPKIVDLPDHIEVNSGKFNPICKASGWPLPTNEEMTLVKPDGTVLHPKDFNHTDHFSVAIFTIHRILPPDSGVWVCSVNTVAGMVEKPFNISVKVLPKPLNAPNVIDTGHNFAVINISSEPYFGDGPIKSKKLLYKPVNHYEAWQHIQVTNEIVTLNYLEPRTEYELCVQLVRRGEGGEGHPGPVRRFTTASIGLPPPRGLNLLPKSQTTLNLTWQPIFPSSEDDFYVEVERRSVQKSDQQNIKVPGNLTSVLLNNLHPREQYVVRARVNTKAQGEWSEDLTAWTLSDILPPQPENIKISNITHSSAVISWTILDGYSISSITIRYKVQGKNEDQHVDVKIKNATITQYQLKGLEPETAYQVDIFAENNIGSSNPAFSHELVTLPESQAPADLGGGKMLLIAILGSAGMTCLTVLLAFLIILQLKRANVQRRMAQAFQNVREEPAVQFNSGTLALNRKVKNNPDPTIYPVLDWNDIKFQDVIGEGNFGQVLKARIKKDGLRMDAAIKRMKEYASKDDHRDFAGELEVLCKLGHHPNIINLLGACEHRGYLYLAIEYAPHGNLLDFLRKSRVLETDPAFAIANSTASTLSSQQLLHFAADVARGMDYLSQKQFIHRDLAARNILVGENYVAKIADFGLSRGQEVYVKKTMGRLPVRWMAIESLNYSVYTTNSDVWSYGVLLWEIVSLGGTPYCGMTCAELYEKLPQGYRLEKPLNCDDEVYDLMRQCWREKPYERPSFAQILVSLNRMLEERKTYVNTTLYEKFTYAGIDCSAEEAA

% Ctrl @ 3 μM [1]: 75 % Ctrl
% Ctrl @ 3 μM [2]: 99 % Ctrl
% Ctrl @ 3 μM [3]: 93 % Ctrl
% Ctrl @ 3 μM [4]: 98 % Ctrl
% Ctrl @ 3 μM [5]: 100 % Ctrl
% Ctrl @ 3 μM [6]: 66 % Ctrl
% Ctrl @ 3 μM [7]: 100 % Ctrl
% Ctrl @ 3 μM [8]: 85 % Ctrl
% Ctrl @ 3 μM [9]: 100 % Ctrl
% Ctrl @ 3 μM [10]: 100 % Ctrl
% Ctrl @ 3 μM [11]: 98 % Ctrl
% Ctrl @ 3 μM [12]: 81 % Ctrl
% Ctrl @ 3 μM [13]: 98 % Ctrl
% Ctrl @ 3 μM [14]: 100 % Ctrl
% Ctrl @ 3 μM [15]: 92 % Ctrl
% Ctrl @ 3 μM [16]: 100 % Ctrl
% Ctrl @ 3 μM [17]: 88 % Ctrl
% Ctrl @ 3 μM [18]: 100 % Ctrl
% Ctrl @ 3 μM [19]: 82 % Ctrl
% Ctrl @ 3 μM [20]: 99 % Ctrl
% Ctrl @ 3 μM [21]: 100 % Ctrl
% Ctrl @ 3 μM [22]: 100 % Ctrl
Structure (SMILES): CN(C)CCNC(=O)c1ccc(-c2ccc(-c3ccc(Cl)cc3)n2-c2ccccc2C(F)(F)F)cc1 (single isomer, unassigned) [Atropisomer A-2]
